assay: recombinant UMI read abundance after kanamycin selection (control-corrected) (log10(CPM+1)); higher = more efficient recombination; extreme values may be limits of the assay; sequences stand for … in AGTGCAGAGAAAATCGGCCAGTTTTCTCTGCCTGCAGTCCGCATGCCGTGGGACCCCTTGGGTTCTAACCTGTTGCCTAGATTTATGCAGCGGACTGCCTTTCTCCCAAAGTGATAAACCGG…AGGTTGGTTTCACT; site = the 11-nt donor
Outline: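 In Escherichia coli, a pool of donor and donor-binding-loop pairs, each with a 12-nt UMI, was tested for the IS621 bridge recombinase. Plating was on IPTG (0.07 mM) plus kanamycin, or without selection, in two replicates. Recombinant UMIs were amplified by PCR across the donor–target junction and sequenced, and counts were reported as log10(CPM+1) after averaging and control-derived scaling.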
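Note: IS621 bridge recombinase in Escherichia coli cells against a fixed T5 target plasmid.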

Point of comparison: “CCCTAGCCATGGACCGGTTTTCCCGGTAATCCGTATTTGCC (site ACCTAGCCTGG)”, “recombinant UMI read abundance (log10)” value 0. Against it:
- CCCGTTCCATGGACCGGTTTTCCCGGTAATCCGTATTTGGC (site CCCGTTCCTGC) — the same, 0
- CCCGTTTCATGGACCGGTTTTCCCGGTAATCCGTATTTGAG (site CCCGTTTCTCT) — higher, 0.807
- CCCTACCCATGGACCGGTTTTCCCGGTAATCCGTATTTGCC (site CCCTAACCTGG) — the same, 0
- CCCTACCCATGGACCGGTTTTCCCGGTAATCCGTATTTGCC (site CCCTACCCTGG) — higher, 0.541
- CCCTACCCATGGACCGGTTTTCCCGGTAATCCGTATTTGCC (site CCCTAGCCTGG) — the same, 0
- CCCTACCCATGGACCGGTTTTCCCGGTAATCCGTATTTGCC (site CCCTATCCTGG) — the same, 0
- CCCTAGACATGGACCGGTTTTCCCGGTAATCCGTATTTGGG (site ACCTAGACTCC) — within 0.2 log units, 0.036
- CCCTAGACATGGACCGGTTTTCCCGGTAATCCGTATTTGGG (site CCCTAGACTCC) — higher, 0.546
- CCCTAGACATGGACCGGTTTTCCCGGTAATCCGTATTTGGG (site GCCTAGACTCC) — within 0.2 log units, 0.0233
- CCCTAGACATGGACCGGTTTTCCCGGTAATCCGTATTTGGG (site TCCTAGACTCC) — within 0.2 log units, 0.0148
- CCCTAGCCATGGACCGGTTTTCCCGGTAATCCGTATTTGCC (site CACTAGCCTGG) — the same, 0
- CCCTAGCCATGGACCGGTTTTCCCGGTAATCCGTATTTGCC (site CCATAGCCTGG) — the same, 0
- CCCTAGCCATGGACCGGTTTTCCCGGTAATCCGTATTTGCC (site CCCAAGCCTGG) — the same, 0
- CCCTAGCCATGGACCGGTTTTCCCGGTAATCCGTATTTGCC (site CCCCAGCCTGG) — the same, 0
- CCCTAGCCATGGACCGGTTTTCCCGGTAATCCGTATTTGCC (site CCCGAGCCTGG) — the same, 0
- CCCTAGCCATGGACCGGTTTTCCCGGTAATCCGTATTTGCC (site CCCTAACCTGG) — the same, 0
- CCCTAGCCATGGACCGGTTTTCCCGGTAATCCGTATTTGCC (site CCCTACCCTGG) — the same, 0
- CCCTAGCCATGGACCGGTTTTCCCGGTAATCCGTATTTGCC (site CCCTAGACTGG) — the same, 0
- CCCTAGCCATGGACCGGTTTTCCCGGTAATCCGTATTTGCC (site CCCTAGCCTAG) — within 0.2 log units, 0.00741
- CCCTAGCCATGGACCGGTTTTCCCGGTAATCCGTATTTGCC (site CCCTAGCCTCG) — within 0.2 log units, 0.00555
- CCCTAGCCATGGACCGGTTTTCCCGGTAATCCGTATTTGCC (site CCCTAGCCTGA) — the same, 0
- CCCTAGCCATGGACCGGTTTTCCCGGTAATCCGTATTTGCC (site CCCTAGCCTGC) — the same, 0
- CCCTAGCCATGGACCGGTTTTCCCGGTAATCCGTATTTGCC (site CCCTAGCCTGG) — the same, 0
- CCCTAGCCATGGACCGGTTTTCCCGGTAATCCGTATTTGCC (site CCCTAGCCTGT) — the same, 0
- CCCTAGCCATGGACCGGTTTTCCCGGTAATCCGTATTTGCC (site CCCTAGCCTTG) — within 0.2 log units, 0.00543
- CCCTAGCCATGGACCGGTTTTCCCGGTAATCCGTATTTGCC (site CCCTAGGCTGG) — the same, 0
- CCCTAGCCATGGACCGGTTTTCCCGGTAATCCGTATTTGCC (site CCCTAGTCTGG) — higher, 1.15
- CCCTAGCCATGGACCGGTTTTCCCGGTAATCCGTATTTGCC (site CCCTATCCTGG) — the same, 0
- CCCTAGCCATGGACCGGTTTTCCCGGTAATCCGTATTTGCC (site CCCTCGCCTGG) — the same, 0
- CCCTAGCCATGGACCGGTTTTCCCGGTAATCCGTATTTGCC (site CCCTGGCCTGG) — the same, 0
- CCCTAGCCATGGACCGGTTTTCCCGGTAATCCGTATTTGCC (site CCCTTGCCTGG) — the same, 0
- CCCTAGCCATGGACCGGTTTTCCCGGTAATCCGTATTTGCC (site CCGTAGCCTGG) — the same, 0
- CCCTAGCCATGGACCGGTTTTCCCGGTAATCCGTATTTGCC (site CCTTAGCCTGG) — the same, 0
- CCCTAGCCATGGACCGGTTTTCCCGGTAATCCGTATTTGCC (site CGCTAGCCTGG) — the same, 0
- CCCTAGCCATGGACCGGTTTTCCCGGTAATCCGTATTTGCC (site CTCTAGCCTGG) — the same, 0
- CCCTAGCCATGGACCGGTTTTCCCGGTAATCCGTATTTGCC (site GCCTAGCCTGG) — the same, 0
- CCCTAGCCATGGACCGGTTTTCCCGGTAATCCGTATTTGCC (site TCCTAGCCTGG) — the same, 0
- CCCTAGGCATGGACCGGTTTTCCCGGTAATCCGTATTTGCC (site CCCTAGACTGG) — the same, 0
- CCCTAGGCATGGACCGGTTTTCCCGGTAATCCGTATTTGCC (site CCCTAGCCTGG) — the same, 0
- CCCTAGGCATGGACCGGTTTTCCCGGTAATCCGTATTTGCC (site CCCTAGGCTGG) — the same, 0
- CCCTAGGCATGGACCGGTTTTCCCGGTAATCCGTATTTGCC (site CCCTAGTCTGG) — the same, 0
- CCCTAGTCATGGACCGGTTTTCCCGGTAATCCGTATTTGCC (site CCCTAGACTGG) — higher, 0.402
- CCCTAGTCATGGACCGGTTTTCCCGGTAATCCGTATTTGCC (site CCCTAGCCTGG) — the same, 0
- CCCTAGTCATGGACCGGTTTTCCCGGTAATCCGTATTTGCC (site CCCTAGGCTGG) — the same, 0
- CCCTAGTCATGGACCGGTTTTCCCGGTAATCCGTATTTGCC (site CCCTAGTCTGG) — higher, 1.23
- CCCTCAACATGGACCGGTTTTCCCGGTAATCCGTATTTGCA (site CCCTCAACTTG) — higher, 0.377
- CCCTCTACATGGACCGGTTTTCCCGGTAATCCGTATTTGCT (site CCCTCTACTAG) — higher, 1.58
- CCCTGTCCATGGACCGGTTTTCCCGGTAATCCGTATTTGCA (site CCCAGTCCTTG) — the same, 0
- CCCTGTCCATGGACCGGTTTTCCCGGTAATCCGTATTTGCA (site CCCCGTCCTTG) — within 0.2 log units, 0.0428
- CCCTGTCCATGGACCGGTTTTCCCGGTAATCCGTATTTGCA (site CCCGGTCCTTG) — the same, 0
- CCCTGTCCATGGACCGGTTTTCCCGGTAATCCGTATTTGCA (site CCCTGTCCTTG) — within 0.2 log units, 0.00678
- CCCTTAGCATGGACCGGTTTTCCCGGTAATCCGTATTTGTG (site CCATTAGCTCA) — within 0.2 log units, 0.0224
- CCCTTAGCATGGACCGGTTTTCCCGGTAATCCGTATTTGTG (site CCCTTAGCTCA) — within 0.2 log units, 0.0472
- CCCTTAGCATGGACCGGTTTTCCCGGTAATCCGTATTTGTG (site CCGTTAGCTCA) — within 0.2 log units, 0.00331
- CCCTTAGCATGGACCGGTTTTCCCGGTAATCCGTATTTGTG (site CCTTTAGCTCA) — within 0.2 log units, 0.0232
- CCCTTCTCATGGACCGGTTTTCCCGGTAATCCGTATTTGGG (site ACCTTCTCTCC) — within 0.2 log units, 0.00611
- CCCTTCTCATGGACCGGTTTTCCCGGTAATCCGTATTTGGG (site CACTTCTCTCC) — within 0.2 log units, 0.00776
- CCCTTCTCATGGACCGGTTTTCCCGGTAATCCGTATTTGGG (site CCATTCTCTCC) — the same, 0
- CCCTTCTCATGGACCGGTTTTCCCGGTAATCCGTATTTGGG (site CCCATCTCTCC) — within 0.2 log units, 0.0128
- CCCTTCTCATGGACCGGTTTTCCCGGTAATCCGTATTTGGG (site CCCCTCTCTCC) — within 0.2 log units, 0.0125
- CCCTTCTCATGGACCGGTTTTCCCGGTAATCCGTATTTGGG (site CCCGTCTCTCC) — within 0.2 log units, 0.00385
- CCCTTCTCATGGACCGGTTTTCCCGGTAATCCGTATTTGGG (site CCCTACTCTCC) — within 0.2 log units, 0.0199
- CCCTTCTCATGGACCGGTTTTCCCGGTAATCCGTATTTGGG (site CCCTCCTCTCC) — within 0.2 log units, 0.0129
- CCCTTCTCATGGACCGGTTTTCCCGGTAATCCGTATTTGGG (site CCCTGCTCTCC) — within 0.2 log units, 0.0154
- CCCTTCTCATGGACCGGTTTTCCCGGTAATCCGTATTTGGG (site CCCTTATCTCC) — the same, 0
- CCCTTCTCATGGACCGGTTTTCCCGGTAATCCGTATTTGGG (site CCCTTCACTCC) — within 0.2 log units, 0.0149
- CCCTTCTCATGGACCGGTTTTCCCGGTAATCCGTATTTGGG (site CCCTTCCCTCC) — within 0.2 log units, 0.00574
- CCCTTCTCATGGACCGGTTTTCCCGGTAATCCGTATTTGGG (site CCCTTCGCTCC) — within 0.2 log units, 0.0128
- CCCTTCTCATGGACCGGTTTTCCCGGTAATCCGTATTTGGG (site CCCTTCTCTAC) — the same, 0
- CCCTTCTCATGGACCGGTTTTCCCGGTAATCCGTATTTGGG (site CCCTTCTCTCA) — within 0.2 log units, 0.0118
- CCCTTCTCATGGACCGGTTTTCCCGGTAATCCGTATTTGGG (site CCCTTCTCTCC) — within 0.2 log units, 0.0281
- CCCTTCTCATGGACCGGTTTTCCCGGTAATCCGTATTTGGG (site CCCTTCTCTCG) — within 0.2 log units, 0.0129
- CCCTTCTCATGGACCGGTTTTCCCGGTAATCCGTATTTGGG (site CCCTTCTCTCT) — within 0.2 log units, 0.0297
- CCCTTCTCATGGACCGGTTTTCCCGGTAATCCGTATTTGGG (site CCCTTCTCTGC) — the same, 0
